The source of these data is patent US20060134124A1, “Immunosuppression” (ML Laboratories PLC, priority 1998, published 2006).

In one test the test system is T cell proliferation. As to the kind of experiment: T cell proliferation response to whole ovalbumin or OVA 323-339 peptide after immunisation with whole ovalbumin. It counts as in vivo, C57BL-6 mice. As to conditions: following immunisation with whole ovalbumin; FIG. 13. The text has this:
FIG. 13 represents a comparison of T cell proliferation response to whole ovalbumen or the ovalbumen peptide Ova323-339;
The peptide sequences and amino acid positions for peptides 1-10 relate to the position of the B7-2 peptide sequence within porcine B7-2. The amino acid position for the ova sequence is only indicated for the Ova peptide. A 17 amino acid peptide from chicken egg albumin (ovalbumin) was selected as the T cell epitope, OVA323-339 (ISQAVHAAHAEINEAGR). This epitope was selected on the basis of published reports for the generation of a H-2^b restricted T cell response (76, 77). […] Peptides were generated on a peptide synthesiser (Genosys) and crude peptides were purified by HPLC to greater than 70% purity.

The test system of test [1] is native porcine B7-2 molecule expressed on the surface of porcine B7-2 transfected P815 cells. As to the kind of experiment: Flow cytometry of immunised-mouse sera on poB7-2 transfected P815 cells. It is filed as binding. As to conditions: for recognition (staining) of porcine B7-2 transfected P815 cells by sera: sera of mice immunised with single peptide, FIGS. 17a and 17b. The text has this:
(II) Transfected P815 cells are crucial reagents for the detection of porcine anti-B7-2 antibody in the sera of immunised mice which have undergone the chimeric peptide immunisation regimen. Flow cytometric analysis with control or poB7-2-transfected P815 cells, reflects the specificity of sera for B7-2.
(§1) Peptide ELISAs are used to screen for the presence of anti-peptide antibody in the sera. Peptides are coated to plates by virtue of aldehyde linkages to allow free access of Ab to the peptide (78), Plates are coated with individual peptides or the ova control peptide to enable the identification of specific peptides of interest. To detect reactivity of sera with the native B7-2 molecule expressed on the surface of PoB7-2 transfected P815 cells, flow cytometry is performed following surface staining. Having identified CS peptide of interest (peptide ELISA positive and recognising native B7-2) the sera is used to inhibit in vitro T cell proliferative responses. This determines whether the antibody is a blocking antibody.
(§2) Immunisations involved two groups of mice, one received a pool of all nine B7-2 peptides, and one receiving ova control peptide. The harvested sera were screened by peptide ELISA (FIG. 14a or 14b) which enabled the identification of peptides of interest. […] Peptide 4 and 6 were selected as candidate peptides and used in subsequent immunisation protocol. […] Similar protocols will be followed with peptide 2.
For orientation: Flow cytometry measures light scatter and fluorescence of single cells or particles in a stream.

Test [2] has as its system direct mouse anti porcine T cell responses. As to the kind of experiment: Inhibition of in vitro T cell proliferative responses by peptide sera. It is filed as cell-based. As to conditions: FIG. 15b. The procedure: as §1
The subject of another test is porcine B7-2 peptides. As to the kind of experiment: Peptide ELISA of sera from mice immunised with OVA-B7-2 chimeric peptides. It counts as in vivo, C57BL-6 mice. To be noted: for level of peptide-specific IgG in the sera of immunised mice: immunisation with peptide 4 or 6, FIGS. 15a and 15b; for binding of antisera to B7 peptide versus ova control by peptide ELISA: sera of mice that received a pool of all nine B7-2 peptides, FIG. 14a or 14b.
Source text: C57BL-6 mice are immunised with whole ovalbumin in CFA, followed by either control peptide (OVA peptide) or CS peptides (OVA-B7-2 constructs) for three weekly immunisations. Blood is collected following sacrifice and sera prepared using a standard technique. Presence of specific mouse anti-porcine B7-2 IgG and/or IgM Ab is detected by one of two strategies.
as §1, §2

In the next test the target is T1, murine CD86 (Mus musculus, UniProt P42082).
T1 sequence (P42082 24-309): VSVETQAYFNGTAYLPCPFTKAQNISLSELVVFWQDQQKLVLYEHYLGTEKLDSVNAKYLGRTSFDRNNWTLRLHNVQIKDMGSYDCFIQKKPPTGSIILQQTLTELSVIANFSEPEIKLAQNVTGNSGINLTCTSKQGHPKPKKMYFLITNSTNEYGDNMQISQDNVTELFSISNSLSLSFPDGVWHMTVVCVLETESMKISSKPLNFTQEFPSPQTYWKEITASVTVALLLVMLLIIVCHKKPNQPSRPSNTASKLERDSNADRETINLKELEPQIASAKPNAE
As to the kind of experiment: Inhibition of costimulation by murine CD86 by peptide sera. As to conditions: FIG. 15b. It counts as cell-based.

Take “ISQAVHAAHAEINEAGR [Ova Peptide, control peptide, reference compound]”: the “proliferative response of C57BL-6 mice (H-2b haplotype)” value with T cell proliferation is reported as “mount a proliferative response”. In test [1], the “recognition (staining) of porcine B7-2 transfected P815 cells by sera” value (from here on “recognition (staining)”) was “do not stain” and the “staining of untransfected control P815 cells by sera” value is listed as “do not stain”.

As for “ISQAVHAAHAEINEAGRCSSTQGYPEPQR [Peptide 6]”, the “inhibition of direct mouse anti porcine T cell responses by sera” value in test [2] is “inhibition of direct mouse anti porcine T cell responses”. In the test on porcine B7-2 peptides, the “level of peptide-specific IgG in the sera of immunised mice” value is on record as “significant level of IgG” and the “binding of antisera to B7 peptide versus ova control by peptide ELISA” value is “preferential binding to B7 peptide than to ova control”. Further, in test [1], the “recognition (staining)” value is “specifically recognise the native porcine B7-2 molecule” and the “staining of untransfected control P815 cells by sera” value is given as “do not stain”. Moreover, the “inhibition of costimulation by murine CD86 by sera” value in the test with murine CD86 is listed as “no inhibition”.

As for ISQAVHAAHAEINEAGRGLVPIHQMS [Peptide 4], the “inhibition of direct mouse anti porcine T cell responses by sera” value in test [2] was “inhibition of direct mouse anti porcine T cell responses”. Besides, in the test with porcine B7-2 peptides, the “level of peptide-specific IgG in the sera of immunised mice” value is listed as “significant level of IgG” and the “binding of antisera to B7 peptide versus ova control by peptide ELISA” value is on record as “preferential binding to B7 peptide than to ova control”. Also, in the test with porcine B7-2 peptides (peptide ELISA, FIG. 16), the “specificity of the sera for the peptide versus ova control” value was “specificity of the sera for peptide 4 and not to ova control”. In test [1], the “recognition (staining)” value is on record as “specifically recognise the native porcine B7-2 molecule” and the “staining of untransfected control P815 cells by sera” value was “do not stain”. Also, the “inhibition of costimulation by murine CD86 by sera” value with murine CD86 is on record as “no inhibition”.

Take ISQAVHAAHAEINEAGRLPCHFTNSQ [Peptide 2]: the “binding of antisera to B7 peptide versus ova control by peptide ELISA” value in the test on porcine B7-2 peptides is given as “preferential binding to B7 peptide than to ova control”.

Consider “ovalbumin [chicken egg albumin used whole for priming immunisation]”, for which the “proliferative response of C57BL-6 mice (H-2b haplotype)” value in the test on T cell proliferation was “mount a proliferative response”.
